Measurements as given in paper PMC9179882 (Cancers, 2022).

Legend:
[1] = tested on: γH2AX in SW480 cells; assay: Western blot of γH2AX (DNA damage); format: cell-based, human; settings: SW480, CX5461 10 µM for 6 h
Source text: Protein extract from different experimental conditions was extracted using RIPA lysis buffer containing 1% PMSF (P7626, Merck, Darmstadt, Germany), 1% protease inhibitor cocktail (PIC) (P8340, Merck, Darmstadt, Germany), and 1% sodium orthovanadate (S6508, Merck, Darmstadt, Germany). Quantification of protein levels was achieved by Bradford method following manufacturer’s protocol (500-0006, BioRad, Hercules, CA, USA). Protein content was loaded on 12% SDS-polyacrylamide gel (1610148, BioRad, Hercules, CA, USA) for electrophoresis and wet transferred to nitrocellulose membranes (66485, Pall corporation, New York, NY, USA). Membranes were blocked with 5% semi-skimmed milk and incubated overnight at 4 °C with antibodies for γH2AX and actin as housekeeping. Then, membranes were incubated with horseradish peroxidase-labeled antibodies for 1 h at RT. After luminal solution (1705060, BioRad, Hercules, CA, USA) incubation, chemiluminiscence signals were measured using Image Quant LAS 4000 (GE Healthcare Life Sciences). […] Protein levels were quantified by ImageJ.
Then, we investigated DNA damage response because the induction of double-strand breaks is a well-known G4s stabilization associated effect [20]. To this end, we measured the phosphorylation of histone H2AX on Ser-139 (γH2AX), a DNA damage marker, by Western Blot.

[2] = tested on: G4 structures in SW480 cells; assay: BG4 immunofluorescence (G4 stabilization in cells); format: cell-based, human; settings: SW480, CX5461 10 µM for 6 h, positive control
Method: Cells were seeded on 13 mm circular coverslips and placed in 24-well plates. After exposure to different experimental conditions, fixation was performed with 4% (v/v) paraformaldehyde (P6148, Merck, Darmstadt, Germany) for 10 min at room temperature (RT), permeabilization with 0.1% (v/v) Triton-X100 (T8787, Merck, Darmstadt, Germany) for 10 min and blocking with 10% bovine serum albumin (A7906, Merck, Darmstadt, Germany) containing 0.5% (v/v) Triton-X100 for 30 min at RT. Primary antibodies were incubated for 1 h at RT and secondary antibodies for 30 min at 4 °C in darkness. Finally, all coverslips were mounted onto slides (J2800AMNZ, Thermo scientific, Waltham, MA, USA), including DAPI (4′,6-diamidino-2-phenylindole) for nuclear counterstain. Images were acquired on a Confocal Zeiss LSM 710 inverted microscope with a 63× immersion objective. In a different manner, BG4 immunofluorescence was conducted as previously described [11]. BG4 mean nuclear fluorescence intensity was quantified using Fiji software (N > 250).

[3] = tested on: G4-enriched genes (5′ETS, BCL2, CMYB, CMYC, KRAS, VEGFA) in SW480 cells; assay: qRT-PCR of G4-enriched genes; format: cell-based, human; settings: SW480, CX5461 10 µM for 6 h
Method: Total cellular RNA was isolated from different experimental group cells using Trizol Reagent (15596, Invitrogen, Waltham, MA, USA). Reverse transcription was conducted using RevertAid First Strand cDNA Synthesis Kit (K1622, Thermo Scientific, MA, USA) according to manufacturer’s protocol with random primers. Quantitative PCR was performed with SYBR Green (4309155, Thermo Scientific, MA, USA) on 7900HT Fast Real-time PCR System (Applied Biosystems). Target mRNA levels were normalized to actin (ΔCt), and fold change was determined using the 2^−ΔΔCt method. Experiments were conducted in triplicate.
In this context, we aimed to analyze whether GA affects the transcription of G4-enriched genes by qRT-PCR. In the case of ribosomal DNA, we measured the short-lived 5′ external transcribed spacer (5′ETS) of the pre-RNA, whichreflects the ribosomal RNA synthesis rate [19].

[4] = tested on: SW620 cells; assay: Resazurin cytotoxic assay, metastatic SW620; format: cell-based, human; settings: Homo sapiens, SW-620, 48 h, mean ± SD
Method: (§1) CRL1790, SW480 and SW620 cell lines were purchased from American Type Culture Collection (ATCC). Cells were cultured at 37 °C with 5% CO2 atmosphere in medium supplemented with 10% fetal bovine serum (10270106, Gibco, Waltham, MA, USA), 10 mg/mL penicillin, 10 mg/mL streptomycin, […] amphotericin, and 0.03% L-Glutamine as recommended by the ATCC. MEM medium (M5650, Merck, Darmstadt, Germany) was used for non-tumoral CRL1790, and RPMI 1640 medium (L0501-500, Biowest, Nuaillé, France) was used for both tumoral SW480 and SW620 cell lines.
(§2) Cytotoxic activity was screened using Resazurin Fluorimetric Assay (R7017, Merck, Darmstadt, Germany), according to the manufacturer’s protocol. Cells seeded into 96-well plates (8 × 10^3 cells/well) were treated for 48 h with phenolic compounds at increasing concentrations from 2 × 10^−5 µM to 100 µM. Negative control with vehicle DMSO was included. Fluorescence was determined using Nanoquant Infinite M200 Pro multi-plate reader (Tecan). Half-maximal inhibitory concentration (IC50) values were determined in triplicate by non-linear regression with Graphpad (Prism).
(§3) Natural products such as phenolic compounds have recently attracted significant attention for their anticancer properties. […] We used three different cell lines to mimic CRC progression. In particular, CRL1790 are colon epithelial cells simulating the non-tumoral stage. In addition, SW480 is Dukes’ type B colorectal adenocarcinoma cells representing the primary tumor. Finally, SW620 constitutes Dukes’ type C colorectal adenocarcinoma derived from metastasic site cells to mimic the most aggressive metastasic stage. […] Cytotoxic potency upon 48 h treatment with phenolic compounds was examined by determination of half-maximal inhibitory concentration (IC50) values using the Resazurin method (Table 1). Only GA inhibited cell growth in SW480 and SW620 at clinically-relevant concentrations (IC50 values lower than 30 µM).

[5] = tested on: CRL1790 cells; assay: Resazurin cytotoxic assay, non-tumoral CRL1790; format: cell-based; settings: Homo sapiens, Epithelial cell, CRL1790 non-tumoral colon epithelial cells, 48 h, mean ± SD
Method: as §1, §2, §3

[6] = tested on: SW480 cells; assay: Resazurin cytotoxic assay, tumoral SW480; format: cell-based, human; settings: Homo sapiens, SW480, 48 h, SW480 primary tumor cells, mean ± SD
Method: as §1, §2, §3

Row | Structure (SMILES) | DNA damage (γH2AX protein levels) [1] | nuclear BG4 signal [2] | transcription of G4-enriched genes [3] | IC50 [4] [µM] | IC50 [5] [µM] | IC50 [6] [µM]
1 | Cc1cnc(CNC(=O)c2c(=O)c3ccc(N4CCCN(C)CC4)nc3n3c2sc2ccccc23)cn1 [CX5461] | significantly induced DNA damage | A similar effect was observed | influenced the expression levels of some of these genes |  |  | 
2 | OCCc1ccc(O)c(O)c1 [Hydroxytyrosol, hydroxytyrosol] |  |  |  | 71.9 ± 3.52 | > 100 | > 100
3 | OC[C@H]1O[C@@H](Oc2cc(O)cc(/C=C/c3ccc(O)cc3)c2)[C@H](O)[C@@H](O)[C@@H]1O [Piceid, piceid] |  |  |  | > 100 | > 100 | > 100
4 | Oc1ccc(/C=C/c2cc(O)cc(O)c2)cc1 [Resveratrol, resveratrol] |  |  |  | > 100 | > 100 | > 100
5 | OCCc1ccc(O)cc1 [Tyrosol, tyrosol] |  |  |  | > 100 | > 100 | > 100
